{"source": "paper PMC10702058", "about": "“Phase I dose escalation study and pilot efficacy analysis of LXI-15029, a novel mTOR dual inhibitor, in Chinese subjects with advanced malignant solid tumors” (BMC Cancer, 2023)", "key": {"[1]": {"tested_on": "human renal carcinoma, gastric cancer, breast cancer, and lung cancer xenografts", "conditions": "cited from earlier work"}, "[2]": {"test": "Phase I dose escalation: safety and tolerability (DLT, MTD, adverse events, NCI-CTCAE 4.03)"}}, "note": "“Also recorded” adds a separate entry of the source."}
{"compound": "CNC(=O)c1cccc(-c2ccc3c(N4C5CCC4COC5)nc(N4CCOC[C@@H]4C)nc3n2)c1", "note": "[LXI-15029]", "values": [{"measurement": "dose dependence of antitumor activity", "setting": "[1]; dose range of 5–40 mg/kg, in vivo preclinical data", "value": "dose-dependent"}, {"measurement": "antitumor activity in xenograft models", "setting": "[1]; tumors with abnormal regulation in the mTOR signaling pathway, ref [25], [26]", "value": "selective antitumor effect; also recorded: selective antitumor activity"}, {"measurement": "Patients with any TEAE", "setting": "[2]; 10 mg BID (n = 3)", "value": "3 (100.0) n (%)"}, {"measurement": "Patients with any TEAE, maximum CTCAE Grade 1", "setting": "[2]; 10 mg BID (n = 3)", "value": "3 (100.0) n (%)"}, {"measurement": "Patients with any TEAE, maximum CTCAE Grade 2", "setting": "[2]; 10 mg BID (n = 3)", "value": "0 n (%)"}, {"measurement": "Patients with any TEAE, maximum CTCAE Grade 3", "setting": "[2]; 10 mg BID (n = 3)", "value": "0 n (%)"}, {"measurement": "≥ 10% TRAE: ALT increased", "setting": "[2]; 10 mg BID (n = 3)", "value": "0 n (%)"}, {"measurement": "≥ 10% TRAE: AST increased", "setting": "[2]; 10 mg BID (n = 3)", "value": "0 n (%)"}, {"measurement": "≥ 10% TRAE: Decreased appetite", "setting": "[2]; 10 mg BID (n = 3)", "value": "1 (33.3) n (%)"}, {"measurement": "≥ 10% TRAE: Diarrhea", "setting": "[2]; 10 mg BID (n = 3)", "value": "0 n (%)"}, {"measurement": "≥ 10% TRAE: ECG QT prolonged", "setting": "[2]; 10 mg BID (n = 3)", "value": "0 n (%)"}, {"measurement": "≥ 10% TRAE: Fatigue", "setting": "[2]; 10 mg BID (n = 3)", "value": "0 n (%)"}, {"measurement": "≥ 10% TRAE: GGT increased", "setting": "[2]; 10 mg BID (n = 3)", "value": "0 n (%)"}, {"measurement": "≥ 10% TRAE: Hypercholesterolemia", "setting": "[2]; 10 mg BID (n = 3)", "value": "0 n (%)"}, {"measurement": "≥ 10% TRAE: Hypertriglyceridemia", "setting": "[2]; 10 mg BID (n = 3)", "value": "0 n (%)"}, {"measurement": "≥ 10% TRAE: LDL increased", "setting": "[2]; 10 mg BID (n = 3)", "value": "0 n (%)"}, {"measurement": "≥ 10% TRAE: Leukocytopenia", "setting": "[2]; 10 mg BID (n = 3)", "value": "0 n (%)"}, {"measurement": "≥ 10% TRAE: Neutropenia", "setting": "[2]; 10 mg BID (n = 3)", "value": "0 n (%)"}, {"measurement": "≥ 10% TRAE: Sinus bradycardia", "setting": "[2]; 10 mg BID (n = 3)", "value": "0 n (%)"}, {"measurement": "Patients with any TEAE", "setting": "[2]; 20 mg BID (n = 3)", "value": "3 (100.0) n (%)"}, {"measurement": "Patients with any TEAE, maximum CTCAE Grade 1", "setting": "[2]; 20 mg BID (n = 3)", "value": "2 (66.7) n (%)"}, {"measurement": "Patients with any TEAE, maximum CTCAE Grade 2", "setting": "[2]; 20 mg BID (n = 3)", "value": "1 (33.3) n (%)"}, {"measurement": "Patients with any TEAE, maximum CTCAE Grade 3", "setting": "[2]; 20 mg BID (n = 3)", "value": "0 n (%)"}, {"measurement": "≥ 10% TRAE: ALT increased", "setting": "[2]; 20 mg BID (n = 3)", "value": "1 (33.3) n (%)"}, {"measurement": "≥ 10% TRAE: AST increased", "setting": "[2]; 20 mg BID (n = 3)", "value": "0 n (%)"}, {"measurement": "≥ 10% TRAE: Decreased appetite", "setting": "[2]; 20 mg BID (n = 3)", "value": "0 n (%)"}, {"measurement": "≥ 10% TRAE: Diarrhea", "setting": "[2]; 20 mg BID (n = 3)", "value": "0 n (%)"}, {"measurement": "≥ 10% TRAE: ECG QT prolonged", "setting": "[2]; 20 mg BID (n = 3)", "value": "0 n (%)"}, {"measurement": "≥ 10% TRAE: Fatigue", "setting": "[2]; 20 mg BID (n = 3)", "value": "1 (33.3) n (%)"}, {"measurement": "≥ 10% TRAE: GGT increased", "setting": "[2]; 20 mg BID (n = 3)", "value": "1 (33.3) n (%)"}, {"measurement": "≥ 10% TRAE: Hypercholesterolemia", "setting": "[2]; 20 mg BID (n = 3)", "value": "0 n (%)"}, {"measurement": "≥ 10% TRAE: Hypertriglyceridemia", "setting": "[2]; 20 mg BID (n = 3)", "value": "1 (33.3) n (%)"}, {"measurement": "≥ 10% TRAE: LDL increased", "setting": "[2]; 20 mg BID (n = 3)", "value": "1 (33.3) n (%)"}, {"measurement": "≥ 10% TRAE: Leukocytopenia", "setting": "[2]; 20 mg BID (n = 3)", "value": "1 (33.3) n (%)"}, {"measurement": "≥ 10% TRAE: Neutropenia", "setting": "[2]; 20 mg BID (n = 3)", "value": "0 n (%)"}, {"measurement": "≥ 10% TRAE: Sinus bradycardia", "setting": "[2]; 20 mg BID (n = 3)", "value": "1 (33.3) n (%)"}, {"measurement": "Patients with any TEAE", "setting": "[2]; 40 mg BID (n = 3)", "value": "2 (66.7) n (%)"}, {"measurement": "Patients with any TEAE, maximum CTCAE Grade 1", "setting": "[2]; 40 mg BID (n = 3)", "value": "1 (33.3) n (%)"}, {"measurement": "Patients with any TEAE, maximum CTCAE Grade 2", "setting": "[2]; 40 mg BID (n = 3)", "value": "1 (33.3) n (%)"}, {"measurement": "Patients with any TEAE, maximum CTCAE Grade 3", "setting": "[2]; 40 mg BID (n = 3)", "value": "0 n (%)"}, {"measurement": "≥ 10% TRAE: ALT increased", "setting": "[2]; 40 mg BID (n = 3)", "value": "0 n (%)"}, {"measurement": "≥ 10% TRAE: AST increased", "setting": "[2]; 40 mg BID (n = 3)", "value": "0 n (%)"}, {"measurement": "≥ 10% TRAE: Decreased appetite", "setting": "[2]; 40 mg BID (n = 3)", "value": "0 n (%)"}, {"measurement": "≥ 10% TRAE: Diarrhea", "setting": "[2]; 40 mg BID (n = 3)", "value": "0 n (%)"}, {"measurement": "≥ 10% TRAE: ECG QT prolonged", "setting": "[2]; 40 mg BID (n = 3)", "value": "0 n (%)"}, {"measurement": "≥ 10% TRAE: Fatigue", "setting": "[2]; 40 mg BID (n = 3)", "value": "0 n (%)"}, {"measurement": "≥ 10% TRAE: GGT increased", "setting": "[2]; 40 mg BID (n = 3)", "value": "0 n (%)"}, {"measurement": "≥ 10% TRAE: Hypercholesterolemia", "setting": "[2]; 40 mg BID (n = 3)", "value": "0 n (%)"}, {"measurement": "≥ 10% TRAE: Hypertriglyceridemia", "setting": "[2]; 40 mg BID (n = 3)", "value": "1 (33.3) n (%)"}, {"measurement": "≥ 10% TRAE: LDL increased", "setting": "[2]; 40 mg BID (n = 3)", "value": "1 (33.3) n (%)"}, {"measurement": "≥ 10% TRAE: Leukocytopenia", "setting": "[2]; 40 mg BID (n = 3)", "value": "2 (66.7) n (%)"}, {"measurement": "≥ 10% TRAE: Neutropenia", "setting": "[2]; 40 mg BID (n = 3)", "value": "0 n (%)"}, {"measurement": "≥ 10% TRAE: Sinus bradycardia", "setting": "[2]; 40 mg BID (n = 3)", "value": "0 n (%)"}, {"measurement": "Patients with any TEAE", "setting": "[2]; 60 mg BID (n = 4)", "value": "3 (75.0) n (%)"}, {"measurement": "Patients with any TEAE, maximum CTCAE Grade 1", "setting": "[2]; 60 mg BID (n = 4)", "value": "1 (25.0) n (%)"}, {"measurement": "Patients with any TEAE, maximum CTCAE Grade 2", "setting": "[2]; 60 mg BID (n = 4)", "value": "2 (50.0) n (%)"}, {"measurement": "Patients with any TEAE, maximum CTCAE Grade 3", "setting": "[2]; 60 mg BID (n = 4)", "value": "0 n (%)"}, {"measurement": "≥ 10% TRAE: ALT increased", "setting": "[2]; 60 mg BID (n = 4)", "value": "1 (25.0) n (%)"}, {"measurement": "≥ 10% TRAE: AST increased", "setting": "[2]; 60 mg BID (n = 4)", "value": "1 (25.0) n (%)"}, {"measurement": "≥ 10% TRAE: Decreased appetite", "setting": "[2]; 60 mg BID (n = 4)", "value": "0 n (%)"}, {"measurement": "≥ 10% TRAE: Diarrhea", "setting": "[2]; 60 mg BID (n = 4)", "value": "2 (50.0) n (%)"}, {"measurement": "≥ 10% TRAE: ECG QT prolonged", "setting": "[2]; 60 mg BID (n = 4)", "value": "2 (50.0) n (%)"}, {"measurement": "≥ 10% TRAE: Fatigue", "setting": "[2]; 60 mg BID (n = 4)", "value": "1 (25.0) n (%)"}, {"measurement": "≥ 10% TRAE: GGT increased", "setting": "[2]; 60 mg BID (n = 4)", "value": "1 (25.0) n (%)"}, {"measurement": "≥ 10% TRAE: Hypercholesterolemia", "setting": "[2]; 60 mg BID (n = 4)", "value": "3 (75.0) n (%)"}, {"measurement": "≥ 10% TRAE: Hypertriglyceridemia", "setting": "[2]; 60 mg BID (n = 4)", "value": "2 (50.0) n (%)"}, {"measurement": "≥ 10% TRAE: LDL increased", "setting": "[2]; 60 mg BID (n = 4)", "value": "1 (25.0) n (%)"}, {"measurement": "≥ 10% TRAE: Leukocytopenia", "setting": "[2]; 60 mg BID (n = 4)", "value": "1 (25.0) n (%)"}, {"measurement": "≥ 10% TRAE: Neutropenia", "setting": "[2]; 60 mg BID (n = 4)", "value": "1 (25.0) n (%)"}, {"measurement": "≥ 10% TRAE: Sinus bradycardia", "setting": "[2]; 60 mg BID (n = 4)", "value": "1 (25.0) n (%)"}, {"measurement": "Patients with any TEAE", "setting": "[2]; 80 mg BID (n = 4)", "value": "4 (100.0) n (%)"}, {"measurement": "Patients with any TEAE, maximum CTCAE Grade 1", "setting": "[2]; 80 mg BID (n = 4)", "value": "3 (75.0) n (%)"}, {"measurement": "Patients with any TEAE, maximum CTCAE Grade 2", "setting": "[2]; 80 mg BID (n = 4)", "value": "1 (25.0) n (%)"}, {"measurement": "Patients with any TEAE, maximum CTCAE Grade 3", "setting": "[2]; 80 mg BID (n = 4)", "value": "0 n (%)"}, {"measurement": "≥ 10% TRAE: ALT increased", "setting": "[2]; 80 mg BID (n = 4)", "value": "0 n (%)"}, {"measurement": "≥ 10% TRAE: AST increased", "setting": "[2]; 80 mg BID (n = 4)", "value": "0 n (%)"}, {"measurement": "≥ 10% TRAE: Decreased appetite", "setting": "[2]; 80 mg BID (n = 4)", "value": "1 (25.0) n (%)"}, {"measurement": "≥ 10% TRAE: Diarrhea", "setting": "[2]; 80 mg BID (n = 4)", "value": "2 (50.0) n (%)"}, {"measurement": "≥ 10% TRAE: ECG QT prolonged", "setting": "[2]; 80 mg BID (n = 4)", "value": "1 (25.0) n (%)"}, {"measurement": "≥ 10% TRAE: Fatigue", "setting": "[2]; 80 mg BID (n = 4)", "value": "2 (50.0) n (%)"}, {"measurement": "≥ 10% TRAE: GGT increased", "setting": "[2]; 80 mg BID (n = 4)", "value": "0 n (%)"}, {"measurement": "≥ 10% TRAE: Hypercholesterolemia", "setting": "[2]; 80 mg BID (n = 4)", "value": "0 n (%)"}, {"measurement": "≥ 10% TRAE: Hypertriglyceridemia", "setting": "[2]; 80 mg BID (n = 4)", "value": "0 n (%)"}, {"measurement": "≥ 10% TRAE: LDL increased", "setting": "[2]; 80 mg BID (n = 4)", "value": "0 n (%)"}, {"measurement": "≥ 10% TRAE: Leukocytopenia", "setting": "[2]; 80 mg BID (n = 4)", "value": "2 (50.0) n (%)"}]}
